The results in this text go back to patent US20260028365A1 (BIOGEN MA INC., priority 2022, published 2026).

For one experiment, the target named is JH2 domain of human Tyk2 (Homo sapiens (Human), UniProt P29597). In words: JH2 Biochemical Assay (TR-FRET probe displacement). The experiment is classed as binding.
For another experiment, the target named is JAK1 (Homo sapiens (Human), UniProt P23458). As to the kind of experiment: pSTAT3 Cell Assay (MSD, TF1 cells). The experiment is classed as cell-based. On the procedure:
The inhibitory potency of compounds of the disclosure against the JAK1 kinase activity on STAT3 was evaluated using an MSD-platform plate-based assay format. TF1 cells natively expressing STAT3 and JAK1 were serum-starved to reduce background phosphorylation levels, then cells were treated with compounds of the disclosure for 1 hour with a 10-point four-fold dilution series starting at 10 μM. Cells were then stimulated with 30 ng/mL interleukin 6 (IL-6) for 15 minutes. Cells were lysed and pSTAT3 levels were quantitated using an MSD plate-based assay with anti-STAT3 antibodies. The data were normalized and the percent activity versus log concentration of compound was fitted with a 4-parameter logistic model to generate IC50 curves.

Another experiment concerns the target Tyk2 (Homo sapiens (Human), UniProt P29597). As to the kind of experiment: pSTAT4 Cell Assay (MSD, NK92 cells). The format is cell-based.
The target of another experiment is JAK2 (Homo sapiens (Human), UniProt O60674). In words: pSTAT5 Cell Assay (MSD, TF1 cells). The experiment is classed as cell-based. On the procedure: Compounds of the disclosure were assessed for their ability to inhibit the JAK2 kinase activity on STAT5 utilizing an MSD-platform plate-based assay format. TF1 cells natively expressing STAT5 and JAK2 were serum-starved to reduce background phosphorylation levels, then cells were treated with compounds of disclosure for 1 hour with a 10-point four-fold dilution series starting at 10 μM. Cells were then stimulated with 30 ng/mL IL-3 for 15 minutes. Cells were then lysed and pSTAT5 levels were quantitated using an MSD plate-based assay with anti-STAT5 antibodies. The data were normalized and the percent activity versus log concentration of compound was fitted with a 4-parameter logistic model to generate a curve and an IC50 value.
Sequence of JAK2 (O60674 whole entry): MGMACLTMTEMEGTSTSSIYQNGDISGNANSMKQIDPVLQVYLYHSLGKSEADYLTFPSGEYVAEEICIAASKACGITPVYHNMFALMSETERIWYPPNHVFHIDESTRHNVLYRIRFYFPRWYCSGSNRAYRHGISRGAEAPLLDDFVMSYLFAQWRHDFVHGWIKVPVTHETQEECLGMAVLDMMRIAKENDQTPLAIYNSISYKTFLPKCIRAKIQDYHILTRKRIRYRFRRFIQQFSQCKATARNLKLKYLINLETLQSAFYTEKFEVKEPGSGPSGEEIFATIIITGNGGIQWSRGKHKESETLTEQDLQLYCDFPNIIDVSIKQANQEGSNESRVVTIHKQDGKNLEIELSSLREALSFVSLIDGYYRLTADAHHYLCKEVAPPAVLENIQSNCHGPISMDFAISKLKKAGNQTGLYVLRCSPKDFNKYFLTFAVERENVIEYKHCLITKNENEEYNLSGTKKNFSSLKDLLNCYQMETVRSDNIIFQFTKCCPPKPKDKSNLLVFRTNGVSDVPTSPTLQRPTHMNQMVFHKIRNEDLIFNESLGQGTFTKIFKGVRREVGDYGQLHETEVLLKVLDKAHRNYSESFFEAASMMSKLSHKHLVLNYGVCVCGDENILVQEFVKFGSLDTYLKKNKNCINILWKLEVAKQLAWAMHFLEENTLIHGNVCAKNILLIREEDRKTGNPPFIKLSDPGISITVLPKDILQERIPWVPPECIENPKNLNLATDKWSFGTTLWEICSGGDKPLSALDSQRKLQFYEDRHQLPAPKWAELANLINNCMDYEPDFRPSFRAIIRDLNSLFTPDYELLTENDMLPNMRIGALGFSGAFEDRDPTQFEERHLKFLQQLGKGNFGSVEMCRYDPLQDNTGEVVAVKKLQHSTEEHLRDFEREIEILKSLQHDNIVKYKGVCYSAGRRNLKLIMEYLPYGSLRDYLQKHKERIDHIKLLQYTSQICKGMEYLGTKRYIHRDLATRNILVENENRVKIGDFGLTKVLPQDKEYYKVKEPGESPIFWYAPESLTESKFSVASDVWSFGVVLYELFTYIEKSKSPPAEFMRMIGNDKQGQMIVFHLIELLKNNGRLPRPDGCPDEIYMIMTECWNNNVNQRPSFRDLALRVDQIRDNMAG

[1] abbreviates: TR-FRET probe displacement, JH2 domain of human Tyk2.
[2] abbreviates: TR-FRET probe displacement, JH2 domain.
The mark [3] stands for this setting: JH2 domain of human Tyk2, TR-FRET probe displacement.

Like-named read-outs stand apart in the source and are kept apart here.

Sequence of JAK1 (P23458 whole entry): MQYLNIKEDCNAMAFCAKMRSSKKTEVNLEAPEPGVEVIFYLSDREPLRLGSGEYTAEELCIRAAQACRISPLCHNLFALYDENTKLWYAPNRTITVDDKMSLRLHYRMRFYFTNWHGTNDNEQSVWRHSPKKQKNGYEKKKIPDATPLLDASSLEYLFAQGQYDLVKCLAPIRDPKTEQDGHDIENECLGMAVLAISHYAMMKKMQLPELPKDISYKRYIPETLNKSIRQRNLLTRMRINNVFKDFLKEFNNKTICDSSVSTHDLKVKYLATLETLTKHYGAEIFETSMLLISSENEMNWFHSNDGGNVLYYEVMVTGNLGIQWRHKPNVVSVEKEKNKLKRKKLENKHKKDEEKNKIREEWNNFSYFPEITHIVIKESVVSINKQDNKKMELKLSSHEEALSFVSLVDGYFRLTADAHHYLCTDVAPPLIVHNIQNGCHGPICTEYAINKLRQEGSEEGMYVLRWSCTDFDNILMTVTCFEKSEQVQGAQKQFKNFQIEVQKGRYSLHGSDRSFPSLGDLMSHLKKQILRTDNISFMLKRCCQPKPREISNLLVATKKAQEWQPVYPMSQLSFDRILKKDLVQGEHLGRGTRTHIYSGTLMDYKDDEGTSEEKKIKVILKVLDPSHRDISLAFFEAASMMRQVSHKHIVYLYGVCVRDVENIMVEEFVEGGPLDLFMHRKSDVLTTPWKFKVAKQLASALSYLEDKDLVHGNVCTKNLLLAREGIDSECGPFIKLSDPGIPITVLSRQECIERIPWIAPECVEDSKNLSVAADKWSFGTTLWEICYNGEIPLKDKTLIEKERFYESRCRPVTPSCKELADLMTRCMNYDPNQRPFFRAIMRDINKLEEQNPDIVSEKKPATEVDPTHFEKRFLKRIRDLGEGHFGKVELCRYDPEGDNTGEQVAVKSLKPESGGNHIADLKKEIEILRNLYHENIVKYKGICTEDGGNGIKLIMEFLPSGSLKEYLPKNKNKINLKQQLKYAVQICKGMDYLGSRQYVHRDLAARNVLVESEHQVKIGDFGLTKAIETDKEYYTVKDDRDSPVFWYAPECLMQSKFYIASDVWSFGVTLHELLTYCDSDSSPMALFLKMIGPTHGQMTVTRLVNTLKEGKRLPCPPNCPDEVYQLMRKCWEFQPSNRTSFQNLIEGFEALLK
Sequence of JH2 domain of human Tyk2 (P29597 575-876): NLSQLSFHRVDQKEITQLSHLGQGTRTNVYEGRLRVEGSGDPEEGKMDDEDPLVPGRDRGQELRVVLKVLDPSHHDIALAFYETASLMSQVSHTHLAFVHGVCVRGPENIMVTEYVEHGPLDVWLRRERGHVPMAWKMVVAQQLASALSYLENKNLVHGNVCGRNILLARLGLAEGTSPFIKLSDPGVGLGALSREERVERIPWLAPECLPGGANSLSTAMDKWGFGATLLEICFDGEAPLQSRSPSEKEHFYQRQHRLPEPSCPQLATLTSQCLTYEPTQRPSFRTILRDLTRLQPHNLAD
Sequence of Tyk2 (P29597 whole entry): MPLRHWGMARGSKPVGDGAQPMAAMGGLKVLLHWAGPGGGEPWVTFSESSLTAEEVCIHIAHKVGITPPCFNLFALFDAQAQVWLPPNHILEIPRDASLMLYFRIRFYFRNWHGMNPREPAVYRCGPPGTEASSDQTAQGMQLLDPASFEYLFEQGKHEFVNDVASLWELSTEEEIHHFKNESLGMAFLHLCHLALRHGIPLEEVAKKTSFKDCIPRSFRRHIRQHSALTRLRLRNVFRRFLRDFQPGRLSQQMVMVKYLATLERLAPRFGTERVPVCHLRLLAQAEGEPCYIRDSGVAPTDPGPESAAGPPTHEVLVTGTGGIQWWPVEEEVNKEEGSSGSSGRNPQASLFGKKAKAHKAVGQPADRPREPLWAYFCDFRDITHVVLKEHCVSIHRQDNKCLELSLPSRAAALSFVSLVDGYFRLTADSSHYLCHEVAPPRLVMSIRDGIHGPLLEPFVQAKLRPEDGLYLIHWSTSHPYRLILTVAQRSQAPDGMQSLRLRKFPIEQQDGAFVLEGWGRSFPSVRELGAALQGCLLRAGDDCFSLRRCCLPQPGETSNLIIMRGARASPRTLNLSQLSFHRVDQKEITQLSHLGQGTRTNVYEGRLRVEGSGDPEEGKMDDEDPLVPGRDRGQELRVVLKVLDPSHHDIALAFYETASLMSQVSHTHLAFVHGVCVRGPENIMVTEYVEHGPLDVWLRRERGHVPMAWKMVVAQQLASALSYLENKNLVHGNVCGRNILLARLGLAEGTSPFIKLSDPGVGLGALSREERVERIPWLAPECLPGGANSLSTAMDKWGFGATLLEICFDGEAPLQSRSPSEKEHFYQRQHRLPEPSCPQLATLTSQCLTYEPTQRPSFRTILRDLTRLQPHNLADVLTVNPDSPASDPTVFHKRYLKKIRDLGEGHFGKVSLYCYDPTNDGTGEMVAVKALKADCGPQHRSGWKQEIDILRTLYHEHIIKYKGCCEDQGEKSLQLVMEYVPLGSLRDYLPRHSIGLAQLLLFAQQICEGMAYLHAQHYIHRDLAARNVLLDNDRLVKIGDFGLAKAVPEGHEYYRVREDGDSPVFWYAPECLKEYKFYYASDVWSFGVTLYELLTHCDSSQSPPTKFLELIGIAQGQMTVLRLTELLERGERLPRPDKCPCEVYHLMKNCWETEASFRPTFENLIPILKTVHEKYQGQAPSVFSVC

One may read the IC50 as the concentration that gives 50% inhibition. Regarding `CCOc1cnc(NC(C)=O)cc1Nc1cc(-c2cnn(C)c2)nc(C(C)(F)F)n1` [Example 302, N-(4-((2-(1,1-difluoroethyl)-6-(1-methyl-1H-pyrazol-4-yl)pyrimidin-4-yl)amino)-5-ethoxypyridin-2-yl)acetamide], the IC50 is at most 10 nM at JH2 domain of human Tyk2 (setting [1]); at least 1000 nM against JAK1 (IL-6 stimulation, MSD); 10 to 100 nM against Tyk2 (MSD); at least 1000 nM against JAK2 (IL-3 stimulation, MSD).
Turning to `COCc1cc(-c2cnc(NC(C)=O)cc2Nc2cc(C)nc(C(C)(F)F)n2)nn1C` [Example 757, N-(4-((2-(1,1-difluoroethyl)-6-methylpyrimidin-4-yl)amino)-5-(5-(methoxymethyl)-1-methyl-1H-pyrazol-3-yl)pyridin-2-yl)acetamide], the IC50 was at most 10 nM on JH2 domain of human Tyk2 (setting [2]), 100 to 1000 nM against JAK1 (IL-6 stimulated), at most 10 nM against Tyk2 and at least 1000 nM on JAK2 (IL-3 stimulated).
On to `CC(=O)Nc1cc(Nc2cc(OC3CC3)nc(C(C)(F)F)n2)c(OC[C@@H]2COCCO2)cn1` (single isomer, unassigned) [Example 453, (S)-N-(5-((1,4-dioxan-2-yl)methoxy)-4-((6-cyclopropoxy-2-(1,1-difluoroethyl)pyrimidin-4-yl)amino)pyridin-2-yl)acetamide or (R)-N-(5-((1,4-dioxan-2-yl)methoxy)-4-((6-cyclopropoxy-2-(1,1-difluoroethyl)pyrimidin-4-yl)amino)pyridin-2-yl)acetamide], for which the IC50 at JH2 domain of human Tyk2 (setting [3]) was at most 10 nM; at JAK1 (IL-6 stimulated, MSD), at least 1000 nM; at Tyk2 (MSD) it was at most 10 nM; against JAK2 (IL-3 stimulated, MSD), at least 1000 nM.
In the case of `CC(=O)Nc1cc(Nc2cc(C)nc(C(C)(F)F)n2)c(O)cn1` [Example 486, N-(4-((2-(1,1-difluoroethyl)-6-methylpyrimidin-4-yl)amino)-5-hydroxypyridin-2-yl)acetamide], the IC50 on JH2 domain of human Tyk2 (setting [3]) was 10 to 100 nM; against JAK1 (IL-6 stimulated, MSD) it was at least 1000 nM; at Tyk2 (MSD), at least 1000 nM; at JAK2 (IL-3 stimulated, MSD), at least 1000 nM.
For `Cc1cc(Nc2cc(NC(N)=O)ncc2-c2ccc(C#N)cn2)nc(C(C)(F)F)n1` [Example 292, 1-(5-cyano-4′-((2-(1,1-difluoroethyl)-6-methylpyrimidin-4-yl)amino)-[2,3′-bipyridin]-6′-yl)urea], the IC50 at JAK1 (IL-6 stimulation, MSD) is at least 1000 nM; on Tyk2 (MSD), at most 10 nM; against JAK2 (IL-3 stimulation, MSD), at least 1000 nM.
`CC(=O)Nc1cc(Nc2cc(C)nc(C(C)(F)F)n2)c(OCC2COC(C)(C)CO2)cn1` (stereo not drawn) [Example 430, N-(4-((2-(1,1-difluoroethyl)-6-methylpyrimidin-4-yl)amino)-5-((5,5-dimethyl-1,4-dioxan-2-yl)methoxy)pyridin-2-yl)acetamide]: the IC50 on JH2 domain of human Tyk2 (setting [3]) was at most 10 nM; on JAK1 (IL-6 stimulated, MSD), at least 1000 nM; at Tyk2 (MSD), 10 to 100 nM; at JAK2 (IL-3 stimulated, MSD), at least 1000 nM.
Regarding `CC(=O)Nc1cc(Nc2cc(C)nc(C(C)(F)F)n2)c(-c2cc(C(F)F)ncn2)cn1` [Example 246, N-(4-((2-(1,1-difluoroethyl)-6-methylpyrimidin-4-yl)amino)-5-(6-(difluoromethyl)pyrimidin-4-yl)pyridin-2-yl)acetamide], the IC50 on JH2 domain of human Tyk2 (setting [1]) is at most 10 nM; against JAK1 (IL-6 stimulation, MSD), at least 1000 nM; on Tyk2 (MSD), 10 to 100 nM; at JAK2 (IL-3 stimulation, MSD) it was at least 1000 nM.
In the case of `CC(=O)Nc1cc(Nc2cc(C)nc(C(C)(F)F)n2)c(OCC2COCCO2)cn1` (stereo not drawn) [Example 135, N-(5-((1,4-dioxan-2-yl)methoxy)-4-((2-(1,1-difluoroethyl)-6-methylpyrimidin-4-yl)amino)pyridin-2-yl)acetamide], the IC50 is at least 1000 nM against JAK1 (IL-6 stimulation, MSD); at most 10 nM at Tyk2 (MSD); at least 1000 nM at JAK2 (IL-3 stimulation, MSD).
Turning to `CC(=O)Nc1cc(Nc2cc(C)nc(C(C)(F)F)n2)c(OCC(C)(C)F)cn1` [Example 119, N-(4-((2-(1,1-difluoroethyl)-6-methylpyrimidin-4-yl)amino)-5-(2-fluoro-2-methylpropoxy)pyridin-2-yl)acetamide], the IC50 against JAK1 (IL-6 stimulation, MSD) was at least 1000 nM; against Tyk2 (MSD), 10 to 100 nM; at JAK2 (IL-3 stimulation, MSD), at least 1000 nM.
As to `COCCn1ncc(-c2cnc(NC(C)=O)cc2Nc2ccnc(C(C)(F)F)n2)n1` [Example 710, N-(4-((2-(1,1-difluoroethyl)pyrimidin-4-yl)amino)-5-(2-(2-methoxyethyl)-2H-1,2,3-triazol-4-yl)pyridin-2-yl)acetamide], the IC50 on JH2 domain of human Tyk2 (setting [3]) was at most 10 nM; against Tyk2 (MSD) it was at most 10 nM; against JAK2 (IL-3 stimulated, MSD) it was at least 1000 nM.
With `Cc1cc(Nc2cc(NC(N)=O)ncc2-c2ccc(F)cn2)nc(C(C)(F)F)n1` [Example 291, 1-(4′-((2-(1,1-difluoroethyl)-6-methylpyrimidin-4-yl)amino)-5-fluoro-[2,3′-bipyridin]-6′-yl)urea], the IC50 is 100 to 1000 nM on JAK1 (IL-6 stimulation, MSD); at most 10 nM against Tyk2 (MSD); at least 1000 nM against JAK2 (IL-3 stimulation, MSD).
`CCc1cc(Nc2cc(NC(C)=O)ncc2-c2cnn(C)n2)nc(C(C)(F)F)n1` [Example 918, N-(4-((2-(1,1-difluoroethyl)-6-ethylpyrimidin-4-yl)amino)-5-(2-methyl-2H-1,2,3-triazol-4-yl)pyridin-2-yl)acetamide]: the figures for the IC50 on JH2 domain of human Tyk2 (setting [2]), against JAK1 (IL-6 stimulated) and at Tyk2 were at most 10 nM, at least 1000 nM and at most 10 nM, respectively.
As for `CCc1cc(Nc2cc(NC(C)=O)ncc2-c2cnc(N3CCOCC3)cn2)nc(C(C)(F)F)n1` [Example 861, N-(4-((2-(1,1-difluoroethyl)-6-ethylpyrimidin-4-yl)amino)-5-(5-morpholinopyrazin-2-yl)pyridin-2-yl)acetamide], the IC50 is at most 10 nM at JH2 domain of human Tyk2 (setting [2]), at least 1000 nM against JAK1 (IL-6 stimulated) and 10 to 100 nM against Tyk2.
The like results for `CCc1cc(Nc2cc(NC(C)=O)ncc2-c2ccc(OC(F)F)cn2)nc(C(C)(F)F)n1` [Example 849, N-(4′-((2-(1,1-difluoroethyl)-6-ethylpyrimidin-4-yl)amino)-5-(difluoromethoxy)-[2,3′-bipyridin]-6′-yl)acetamide] were, in that order, at most 10 nM, at least 1000 nM and at most 10 nM.
As to `CC(=O)Nc1cc(Nc2ccnc(C(C)(F)F)n2)c(-c2ccc(CN3CCOC[C@@H]3C)cn2)cn1` [Example 892, (S)-N-(4′-((2-(1,1-difluoroethyl)pyrimidin-4-yl)amino)-5-((3-methylmorpholino)methyl)-[2,3′-bipyridin]-6′-yl)acetamide], the IC50 on JH2 domain of human Tyk2 (setting [2]) was at most 10 nM; at JAK1 (IL-6 stimulated), at least 1000 nM; against Tyk2, at most 10 nM.
With `CC(=O)Nc1cc(Nc2cc(C)nc(C34COC(C3)C4)n2)c(-c2ccc(C#N)cn2)cn1` [Example 751, N-(4′-((2-(2-oxabicyclo[2.1.1]hexan-4-yl)-6-methylpyrimidin-4-yl)amino)-5-cyanO[2,3′-bipyridin]-6′-yl)acetamide], the IC50 at JH2 domain of human Tyk2 (setting [2]) is at most 10 nM; against JAK1 (IL-6 stimulated), at least 1000 nM; on Tyk2, 10 to 100 nM.
`CC(=O)Nc1cc(Nc2cc(C)nc(C(C)(F)F)n2)c(-c2nncs2)cn1` [Example 744, N-(4-((2-(1,1-difluoroethyl)-6-methylpyrimidin-4-yl)amino)-5-(1,3,4-thiadiazol-2-yl)pyridin-2-yl)acetamide]: the half-maximal inhibitory concentration (IC50) is at most 10 nM on JH2 domain of human Tyk2 (setting [3]); at least 1000 nM against JAK1 (IL-6 stimulated, MSD); at most 10 nM against Tyk2 (MSD).
For the molecule `CC(=O)Nc1cc(Nc2ccnc(C(C)(F)F)n2)c(-c2ccnc(C(F)F)n2)cn1` [Example 775, N-(4-((2-(1,1-difluoroethyl)pyrimidin-4-yl)amino)-5-(2-(difluoromethyl)pyrimidin-4-yl)pyridin-2-yl)acetamide], the values for the IC50 on JH2 domain of human Tyk2 (setting [2]), at JAK1 (IL-6 stimulated) and on Tyk2 were at most 10 nM, at least 1000 nM and at most 10 nM, respectively.
On to `COCCc1nnc(-c2cnc(NC(C)=O)cc2Nc2cc(C)nc(C(C)(F)F)n2)s1` [Example 754, N-(4-((2-(1,1-difluoroethyl)-6-methylpyrimidin-4-yl)amino)-5-(5-(2-methoxyethyl)-1,3,4-thiadiazol-2-yl)pyridin-2-yl)acetamide], for which the IC50 was at most 10 nM on JH2 domain of human Tyk2 (setting [2]), at least 1000 nM against JAK1 (IL-6 stimulated) and at most 10 nM at Tyk2.
As to `CCc1cc(Nc2cc(NC(C)=O)ncc2-c2cc(C(F)F)ncn2)nc(C(C)(F)F)n1` [Example 891, N-(4-((2-(1,1-difluoroethyl)-6-ethylpyrimidin-4-yl)amino)-5-(6-(difluoromethyl)pyrimidin-4-yl)pyridin-2-yl)acetamide], the IC50 is at most 10 nM on JH2 domain of human Tyk2 (setting [2]), at least 1000 nM at JAK1 (IL-6 stimulated) and at most 10 nM at Tyk2.
For `CC(=O)Nc1cc(Nc2cc(C)nc(C(C)(C)F)n2)c(-c2ccncn2)cn1` [Example 800, N-(4-((2-(2-fluoropropan-2-yl)-6-methylpyrimidin-4-yl)amino)-5-(pyrimidin-4-yl)pyridin-2-yl)acetamide], the IC50 at JH2 domain of human Tyk2 (setting [2]) is at most 10 nM; at JAK1 (IL-6 stimulated), at least 1000 nM; against Tyk2, at most 10 nM.
